From patent US20260007600A1, “NUCLEIC ACID DRUG FOR TREATING HYPERURICEMIA-RELATED DISEASES, PREPARATION METHOD THEREFOR, AND USE THEREOF” (Rigerna Therapeutics (Beijing) Co., Ltd., priority 2022, published 2026)

Key:
[1] = tested on: hyperuricemia mouse model; experiment: Therapeutic effect in hyperuricemia model mice (0.15% high-purine feed), Example 9; assay type: in vivo, C57BL/6 mice; settings: for serum uric acid during treatment: Allopurinol daily in drinking water
Text: Female C57BL/6 mice aged 6 to 8 weeks were purchased from SPF (BEIJING) BIOTECHNOLOGY CO., LTD. The mice were randomly divided into 4 groups and subjected to different treatments, i.e., one group was fed normally, and the other three groups were constructed as models of hyperuricemia. For the model mice, the mice were fed with 0.15% high-purine feed starting from Day −14, that is, the hyperuricemia model was constructed by continuous high-purine diet. On Day 0, blood of all the mice was collected by orbital sampling, and serum was separated to detect uric acid levels. After confirming that the models of mice were successfully modeled, the mice were administrated with drug. The mice that were not subjected to the model construction were raised normally and administrated through tail vein injection with 200 μL of PBS (Control group, G1). The mice were subject to the model construction, and on 14 days after the model construction, the mice were administrated through tail vein injection with 200 μL of PBS (PBS group, G2). […] At different time points after the drug administration, blood of the mice was collected by orbital sampling, and the serum was separated and analyzed for uric acid and other biochemical indices. The changes in weight of the mice were recorded throughout the model construction and drug administration. […] The liver tissue was taken for metabolomics analysis, and the heart, liver, spleen, lung, kidney, and other tissues and organs were fixed and analyzed for pathological changes by H&E staining.
The same method as step 1 of the present example was used to construct the hyperuricemia mouse model, and the therapeutic effect of the novel lipid nanoparticle Uox1@iLAND in the hyperuricemia mouse model was evaluated. […] At different time points after the drug administration, blood of the mice was collected by orbital sampling, and the serum was separated and the uric acid level was measured.

[2] = tested on: hyperuricemia mouse model; experiment: Therapeutic effect in hyperuricemia model mice (uric acid inhibitors injected subcutaneously), Example 8; assay type: in vivo, C57BL/6 mice; settings: mUox@iLAND 200 μL tail vein once; Allopurinol daily in drinking water; vs PBS group; FIG. 15
Text: Female C57BL/6 mice aged 6 to 8 weeks were purchased from SPF (BEIJING) BIOTECHNOLOGY CO., LTD. The mice were randomly divided into 4 groups and subjected to different treatments, i.e., one group was fed normally, and the other three groups were constructed as models of hyperuricemia. For model mice, uric acid inhibitors were subcutaneously injected on Day −14. On Day 0, blood of all the mice was collected by orbital sampling, and serum was separated to detect uric acid levels. After confirming that the models of mice were successfully modeled, the mice were administrated with drug. The mice that were not subjected to the model construction were raised normally and administrated through tail vein injection with 200 μL of PBS (Control group, G1). The mice were subject to the model construction, and on 14 days after the model construction, the mice were administrated through tail vein injection with 200 μL of PBS (PBS group, G2). […] At different time points after the drug administration, blood of the mice was collected by orbital sampling, and the serum was separated and analyzed for uric acid and other biochemical indices. The changes in weight of the mice were recorded throughout the model construction and drug administration.

Oc1ncnc2[nH]ncc12 [Allopurinol]
serum uric acid level reached ([1]; step 1, Allopurinol daily in drinking water, FIG. 19): around 0 μM
serum uric acid during treatment ([1]; step 1, mUox@iLAND 200 μL tail vein once, FIG. 19): lowered the uric acid level below the normal level
serum uric acid during treatment ([1]; step 2, Uox1@iLAND 200 μL tail vein once, FIG. 24): lower the uric acid level to a level same as the normal level or a level lower than the normal level
serum uric acid during treatment [2]: able to maintain a certain level of uric acid
